{"source": "patent US20120029031A1", "about": "“METADOXINE FOR USE AS INHIBITOR OF HEPATIC FIBROSIS” (LABORATORI BALDACCI SPA, priority 2009, published 2012)", "system": "immortalized human fibroblasts", "assay": "Proliferation of immortalized human fibroblasts (MTT, Mosmann method)", "format": "cell-based", "settings": "MTT O.D. as percent of control; tested range 10^−11M to 10^−3M; measured up to 120 h, treatments repeated every 24 h", "description": "The methods used allow evaluating the effect of substances provided with potential antifibrotic activity on the proliferation of fibroblasts.\nA line of immortalized human fibroblasts was used, maintained in a culture in a suitable medium.\nIn order to carry out the proliferation experiments, the fibroblasts were detached from the flask by means of trypsinization, counted and distributed on 96-well flat-bottom plates at the concentration of 2000 cells/100 μl medium.\nScalar concentrations of metadoxine were added (range of concentration from 10^−11M to 10^−3M).\nThe plates were maintained in CO2 incubator at 37° C. The proliferation of the cells was measured at 24 h intervals up to 120 h by using the Mosmann method (10), based on the spectrophotometer determination of the conversion of MTT [3-(4,5 dimethylthiazole-2-yl)-2-5 diphenyltetrazolium bromide] to its blue reduction product, formazan, by mitochondrial enzymes of the metabolically active cells.\nThe optical densities (O.D.) were determined by means of the Titertek Multiscan (Flow) spectrophotometer with 540 nm filter.\nThe O.D.s of the samples are expressed as percentages of the samples with respect to the control group.", "data": [{"smiles": "Cc1ncc(CO)c(CO)c1O.O=C1CC[C@@H](C(=O)O)N1", "note": "[Metadoxine, Pyridoxol L-2-pyrrolidone-5-carboxylate]", "values": [{"measurement": "concentration at which metadoxine inhibits the fibrogenic activity / growth of fibroblasts", "result": "10^−5 M"}]}]}
